Activity calls are given as the source filed them.

For test [1], the target named is T1, Short transient receptor potential channel 4 (Mus musculus, UniProt Q9QUQ5).
T1 sequence (Q9QUQ5 whole entry): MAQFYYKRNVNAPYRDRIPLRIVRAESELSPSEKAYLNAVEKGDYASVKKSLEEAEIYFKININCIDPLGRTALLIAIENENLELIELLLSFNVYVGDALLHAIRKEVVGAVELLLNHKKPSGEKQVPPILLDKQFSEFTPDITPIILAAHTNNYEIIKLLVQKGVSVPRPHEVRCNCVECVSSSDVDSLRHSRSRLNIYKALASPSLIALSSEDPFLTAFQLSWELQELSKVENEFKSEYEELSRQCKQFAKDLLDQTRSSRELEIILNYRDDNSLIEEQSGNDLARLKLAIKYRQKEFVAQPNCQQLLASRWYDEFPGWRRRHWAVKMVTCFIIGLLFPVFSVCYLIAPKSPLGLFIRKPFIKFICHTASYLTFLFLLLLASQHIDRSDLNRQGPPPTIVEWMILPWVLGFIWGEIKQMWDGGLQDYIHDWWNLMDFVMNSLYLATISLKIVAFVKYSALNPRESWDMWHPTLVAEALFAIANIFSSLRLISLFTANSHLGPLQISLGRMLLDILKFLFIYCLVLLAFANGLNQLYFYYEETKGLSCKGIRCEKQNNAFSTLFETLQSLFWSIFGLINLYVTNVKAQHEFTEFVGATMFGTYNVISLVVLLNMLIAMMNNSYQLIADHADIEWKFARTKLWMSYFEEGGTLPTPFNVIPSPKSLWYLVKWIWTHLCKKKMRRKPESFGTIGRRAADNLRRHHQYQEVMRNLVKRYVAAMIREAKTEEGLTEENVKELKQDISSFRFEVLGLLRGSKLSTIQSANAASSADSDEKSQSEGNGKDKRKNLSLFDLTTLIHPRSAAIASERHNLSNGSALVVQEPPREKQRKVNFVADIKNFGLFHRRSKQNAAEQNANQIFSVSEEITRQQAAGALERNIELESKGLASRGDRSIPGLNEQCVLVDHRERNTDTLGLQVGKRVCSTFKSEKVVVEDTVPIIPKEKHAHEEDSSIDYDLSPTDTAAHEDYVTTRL
Briefly: mouse TRPC4 channel activators, dose response, cell-based, HEK293 TRPC4/mu-opioid, Fluo-4 calcium (AID 434937). It is filed as functional.

The target in test [2] is DNA dC->dU-editing enzyme APOBEC-3G (Homo sapiens, UniProt Q9HC16). Briefly: Dose Response confirmation of small molecule APOBEC3G DNA Deaminase Inhibitors via a fluorescence-based single-stranded DNA deaminase assay. [Related pubchem assays (depositor defined):AID493012, AID493028]. The format is functional.
Chain of DNA dC->dU-editing enzyme APOBEC-3G (Q9HC16 whole entry): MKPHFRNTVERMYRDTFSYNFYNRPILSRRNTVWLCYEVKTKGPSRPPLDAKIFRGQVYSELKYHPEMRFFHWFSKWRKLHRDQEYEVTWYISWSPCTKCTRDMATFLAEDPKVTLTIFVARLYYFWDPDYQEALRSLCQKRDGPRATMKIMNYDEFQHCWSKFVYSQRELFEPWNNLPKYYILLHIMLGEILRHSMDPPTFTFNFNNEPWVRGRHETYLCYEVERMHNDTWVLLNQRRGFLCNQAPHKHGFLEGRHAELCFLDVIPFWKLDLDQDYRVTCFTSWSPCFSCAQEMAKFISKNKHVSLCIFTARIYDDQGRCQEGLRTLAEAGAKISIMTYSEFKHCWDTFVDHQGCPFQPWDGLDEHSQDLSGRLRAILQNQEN
The target in a further test is T2, Protein RecA (Mycobacterium tuberculosis, UniProt P9WHJ3).
T2 sequence (P9WHJ3 whole entry): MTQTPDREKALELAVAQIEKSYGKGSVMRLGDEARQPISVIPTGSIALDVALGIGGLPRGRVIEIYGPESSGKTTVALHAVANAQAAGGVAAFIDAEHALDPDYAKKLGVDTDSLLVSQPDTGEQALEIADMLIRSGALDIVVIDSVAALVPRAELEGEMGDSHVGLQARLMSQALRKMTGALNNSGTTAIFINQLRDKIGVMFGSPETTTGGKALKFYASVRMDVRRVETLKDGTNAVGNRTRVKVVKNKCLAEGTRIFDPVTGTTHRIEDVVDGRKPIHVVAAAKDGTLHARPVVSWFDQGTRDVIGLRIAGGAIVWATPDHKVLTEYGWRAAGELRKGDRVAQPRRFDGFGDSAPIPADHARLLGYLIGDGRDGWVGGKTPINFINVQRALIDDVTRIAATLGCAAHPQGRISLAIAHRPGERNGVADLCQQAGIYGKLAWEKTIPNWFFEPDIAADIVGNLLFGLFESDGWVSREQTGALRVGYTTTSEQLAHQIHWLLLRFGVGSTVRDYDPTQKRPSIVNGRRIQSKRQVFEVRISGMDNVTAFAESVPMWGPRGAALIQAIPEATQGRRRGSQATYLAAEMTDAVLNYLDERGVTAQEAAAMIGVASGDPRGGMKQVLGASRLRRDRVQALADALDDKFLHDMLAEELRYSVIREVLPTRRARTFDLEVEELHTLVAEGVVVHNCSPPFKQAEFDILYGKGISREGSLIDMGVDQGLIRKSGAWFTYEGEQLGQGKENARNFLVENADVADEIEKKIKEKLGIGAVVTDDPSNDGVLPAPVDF
Briefly: Fluorescence Cell-Free Homogeneous Dose Retest to Identify Inhibitors of RecA-Intein Splicing Activity. [Related pubchem assays (depositor defined):AID2097, AID2223, AID489010, AID492950]. The format is functional.

The target of test [3] is T3, Replicative DNA helicase DnaB (Mycobacterium tuberculosis, UniProt P9WMR3).
T3 sequence (P9WMR3 whole entry): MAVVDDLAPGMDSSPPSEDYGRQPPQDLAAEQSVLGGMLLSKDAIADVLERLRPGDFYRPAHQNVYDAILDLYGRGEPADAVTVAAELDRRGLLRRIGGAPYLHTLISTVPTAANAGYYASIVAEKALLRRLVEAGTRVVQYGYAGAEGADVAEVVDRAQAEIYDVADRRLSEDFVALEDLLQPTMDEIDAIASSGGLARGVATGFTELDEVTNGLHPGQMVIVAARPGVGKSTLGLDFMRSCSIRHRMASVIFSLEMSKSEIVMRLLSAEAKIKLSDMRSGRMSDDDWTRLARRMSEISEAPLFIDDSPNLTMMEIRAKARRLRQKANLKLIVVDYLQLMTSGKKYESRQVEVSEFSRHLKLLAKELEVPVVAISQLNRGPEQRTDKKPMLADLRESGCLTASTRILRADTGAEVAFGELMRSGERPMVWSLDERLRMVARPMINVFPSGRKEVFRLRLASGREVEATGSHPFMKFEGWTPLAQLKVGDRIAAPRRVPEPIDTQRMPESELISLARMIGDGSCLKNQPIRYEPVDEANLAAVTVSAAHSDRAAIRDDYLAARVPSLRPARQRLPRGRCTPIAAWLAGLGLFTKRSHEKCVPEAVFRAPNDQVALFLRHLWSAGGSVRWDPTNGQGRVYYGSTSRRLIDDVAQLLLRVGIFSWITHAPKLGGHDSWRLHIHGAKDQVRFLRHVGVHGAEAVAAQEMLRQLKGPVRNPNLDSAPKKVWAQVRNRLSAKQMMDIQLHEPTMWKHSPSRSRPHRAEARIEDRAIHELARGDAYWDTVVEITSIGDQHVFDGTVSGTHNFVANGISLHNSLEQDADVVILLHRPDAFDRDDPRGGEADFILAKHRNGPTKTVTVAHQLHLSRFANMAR
Briefly: DnaB intein splicing inhibitors, dose response, biochemical, cell-free fluorescence (AID 449749). It is filed as functional.

The target in test [4] is DNA dC->dU-editing enzyme APOBEC-3A (Homo sapiens, UniProt P31941). Briefly: APOBEC3A DNA deaminase inhibitors, dose response, biochemical (AID 504722). The format is functional.
Chain of DNA dC->dU-editing enzyme APOBEC-3A (P31941 whole entry): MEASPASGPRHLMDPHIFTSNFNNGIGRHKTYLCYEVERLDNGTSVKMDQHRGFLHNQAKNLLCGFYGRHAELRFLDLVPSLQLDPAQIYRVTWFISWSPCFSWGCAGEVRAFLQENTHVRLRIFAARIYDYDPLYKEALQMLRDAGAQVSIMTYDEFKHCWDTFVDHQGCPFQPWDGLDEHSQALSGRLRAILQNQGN
For the next test, the target named is SUMO-activating enzyme (Homo sapiens, UniProt Q9UBT2). Briefly: inhibitors of in vitro SUMOylation cascade, primary screen, biochemical, HTRF, uHTS (AID 2006). It is filed as protein-complex assay.
Chain of SUMO-activating enzyme (Q9UBE0 whole entry): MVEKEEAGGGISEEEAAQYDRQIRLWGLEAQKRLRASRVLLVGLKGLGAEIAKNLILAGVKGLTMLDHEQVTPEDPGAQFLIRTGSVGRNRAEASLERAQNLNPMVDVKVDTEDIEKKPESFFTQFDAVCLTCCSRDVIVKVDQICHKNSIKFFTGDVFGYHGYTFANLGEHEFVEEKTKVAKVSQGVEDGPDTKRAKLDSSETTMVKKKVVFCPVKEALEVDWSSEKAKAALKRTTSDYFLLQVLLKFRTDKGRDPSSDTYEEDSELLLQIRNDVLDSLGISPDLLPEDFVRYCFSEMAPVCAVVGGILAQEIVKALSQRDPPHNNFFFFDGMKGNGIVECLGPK
Chain of SUMO-activating enzyme (Q9UBT2 whole entry): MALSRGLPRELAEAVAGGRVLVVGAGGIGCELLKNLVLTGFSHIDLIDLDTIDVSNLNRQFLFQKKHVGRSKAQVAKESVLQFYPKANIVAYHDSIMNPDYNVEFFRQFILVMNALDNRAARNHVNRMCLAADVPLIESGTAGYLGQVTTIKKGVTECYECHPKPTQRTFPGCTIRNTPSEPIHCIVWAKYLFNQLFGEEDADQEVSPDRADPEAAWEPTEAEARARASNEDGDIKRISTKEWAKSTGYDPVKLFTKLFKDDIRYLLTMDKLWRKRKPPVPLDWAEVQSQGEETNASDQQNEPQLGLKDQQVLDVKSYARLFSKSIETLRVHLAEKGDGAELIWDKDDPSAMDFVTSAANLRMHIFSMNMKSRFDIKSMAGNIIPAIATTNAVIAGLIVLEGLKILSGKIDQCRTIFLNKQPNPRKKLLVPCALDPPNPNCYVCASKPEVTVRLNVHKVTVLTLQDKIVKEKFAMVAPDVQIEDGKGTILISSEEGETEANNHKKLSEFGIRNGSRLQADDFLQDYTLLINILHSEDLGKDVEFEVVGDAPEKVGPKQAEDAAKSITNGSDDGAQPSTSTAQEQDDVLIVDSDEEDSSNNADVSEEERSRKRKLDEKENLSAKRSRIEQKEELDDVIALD
Test [5] concerns the target T4, Rac GTPase-activating protein 1 (Homo sapiens, UniProt Q9H0H5).
T4 sequence (Q9H0H5 whole entry): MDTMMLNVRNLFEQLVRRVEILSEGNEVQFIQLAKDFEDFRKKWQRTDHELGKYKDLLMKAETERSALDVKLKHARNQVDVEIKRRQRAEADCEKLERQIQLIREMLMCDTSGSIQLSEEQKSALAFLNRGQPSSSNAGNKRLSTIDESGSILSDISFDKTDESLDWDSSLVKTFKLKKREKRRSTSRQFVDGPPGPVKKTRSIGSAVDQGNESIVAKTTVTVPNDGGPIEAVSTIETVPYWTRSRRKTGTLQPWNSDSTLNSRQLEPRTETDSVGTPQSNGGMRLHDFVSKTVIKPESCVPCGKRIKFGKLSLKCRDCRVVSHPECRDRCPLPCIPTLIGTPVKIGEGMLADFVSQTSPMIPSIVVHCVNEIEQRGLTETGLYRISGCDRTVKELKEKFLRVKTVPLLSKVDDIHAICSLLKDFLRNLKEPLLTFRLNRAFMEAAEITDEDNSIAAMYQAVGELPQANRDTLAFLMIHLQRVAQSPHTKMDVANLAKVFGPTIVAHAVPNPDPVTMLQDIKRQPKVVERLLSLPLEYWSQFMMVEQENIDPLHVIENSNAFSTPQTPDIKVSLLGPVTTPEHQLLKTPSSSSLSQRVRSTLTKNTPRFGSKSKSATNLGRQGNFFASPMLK
Briefly: MgcRacGAP GTPase-activating activity inhibitors, confirmation, biochemical, ADP Hunter fluorescence, primary and confirmatory (AID 624330). It is filed as functional.

The target in test [6] is T5, Mannose-6-phosphate isomerase (Homo sapiens, UniProt P34949).
T5 sequence (P34949 whole entry): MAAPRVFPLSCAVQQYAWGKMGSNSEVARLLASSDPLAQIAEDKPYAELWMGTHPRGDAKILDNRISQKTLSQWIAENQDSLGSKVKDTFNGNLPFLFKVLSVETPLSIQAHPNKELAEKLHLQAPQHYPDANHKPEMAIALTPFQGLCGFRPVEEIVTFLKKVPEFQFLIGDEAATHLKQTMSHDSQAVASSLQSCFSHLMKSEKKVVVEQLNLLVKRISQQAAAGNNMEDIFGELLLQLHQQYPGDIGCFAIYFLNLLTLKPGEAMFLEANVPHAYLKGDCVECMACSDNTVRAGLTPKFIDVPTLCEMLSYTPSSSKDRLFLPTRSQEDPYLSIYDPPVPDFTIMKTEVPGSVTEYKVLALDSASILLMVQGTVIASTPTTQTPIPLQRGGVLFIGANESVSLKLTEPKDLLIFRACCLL
Briefly: human PMI inhibitors, high substrate, primary screen, biochemical, fluorescence intensity, high mannose 6-phosphate (AID 1220).

Test [7] deals with T6, Corticotropin-releasing factor receptor 2/Corticotropin-releasing factor-binding protein (Homo sapiens, UniProt P24387+Q13324).
T6 sequence (Q13324 whole entry): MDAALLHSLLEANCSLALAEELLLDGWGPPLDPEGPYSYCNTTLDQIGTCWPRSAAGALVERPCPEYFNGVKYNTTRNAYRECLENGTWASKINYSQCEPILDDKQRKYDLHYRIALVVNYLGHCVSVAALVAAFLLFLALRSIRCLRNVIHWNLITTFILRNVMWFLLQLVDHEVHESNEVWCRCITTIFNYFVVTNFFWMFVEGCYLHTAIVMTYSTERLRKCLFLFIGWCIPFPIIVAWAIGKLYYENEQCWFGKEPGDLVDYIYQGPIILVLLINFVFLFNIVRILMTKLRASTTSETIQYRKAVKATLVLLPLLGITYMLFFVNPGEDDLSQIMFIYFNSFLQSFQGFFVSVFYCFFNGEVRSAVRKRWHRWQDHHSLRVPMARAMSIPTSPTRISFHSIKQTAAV
T6 sequence (P24387 whole entry): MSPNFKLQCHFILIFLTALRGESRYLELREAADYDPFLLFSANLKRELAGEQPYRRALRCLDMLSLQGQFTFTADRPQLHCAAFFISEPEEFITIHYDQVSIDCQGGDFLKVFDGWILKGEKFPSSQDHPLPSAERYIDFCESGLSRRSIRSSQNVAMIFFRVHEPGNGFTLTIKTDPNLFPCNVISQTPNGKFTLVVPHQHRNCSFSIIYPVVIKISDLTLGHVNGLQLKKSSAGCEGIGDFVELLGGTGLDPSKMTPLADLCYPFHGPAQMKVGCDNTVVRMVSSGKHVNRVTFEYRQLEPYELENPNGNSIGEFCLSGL
Briefly: activators of CRF receptor 2 with binding protein – uHTS hits, confirmation (AID 602473). The format is functional. The settings on record: read-out: EC50_Mean.

Test [8] addresses T6, Corticotropin-releasing factor receptor 2/Corticotropin-releasing factor-binding protein. Briefly: Dose Response confirmation of uHTS hits for small molecule antagonists of the CRF-binding protein and CRF-R2 receptor complex. The format is functional. The settings on record: read-out: IC50_Mean.
Test [9] addresses T1, Short transient receptor potential channel 4. Briefly: mouse TRPC4 channel inhibitors, dose response, cell-based, HEK293 TRPC4/mu-opioid, Fluo-4 calcium (AID 434942).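 Further: potency of inhibitors blocking the TRPC4 calcium response.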 It is filed as functional.
Test [10] in a line: CRF-BP/CRF-R2 complex antagonists, dose response, cell-based, uHTS hits, 384-well (AID 651639). It is filed as functional, Homo sapiens. The settings on record: read-out: IC50_Mean.

Consider `Cc1ccccc1C(=O)NNC(=S)NC(=O)COc1ccccc1`, for which the EC50 in test [1] is 5.31 µM (active); at Protein RecA it was 17.7 µM (active). Also, the IC50 in [2] is 12.7 µM (active); in test [4], > 100 µM (inactive). For the same molecule, the AC50 in test [3] is 29 µM (active).

As for `COc1ccc2c(c1)-c1nc(/N=C/c3cccc(OC)c3O)sc1CC2`, the IC50 at SUMO-activating enzyme was > 100 µM (inactive); in test [5], 23.7 µM (active); in [6], > 50 µM (not active).

As for `COC(=O)CSc1nn(-c2ccc(F)cc2)c(=S)s1`, the EC50 in test [7] was > 53 µM (inactive); in test [9], 6.68 µM (active). The IC50 is 4.86 µM (active) in test [8] and > 20 µM (inactive) in test [10].

Turning to `CCOC(=O)C1(Cc2ccccc2)CCN(CC2CC=CCC2)CC1` (stereo not drawn), the EC50 in test [9] is 13.3 µM (active).

The values above are taken from ChEMBL document CHEMBL1201862, “PubChem BioAssay data set” (2004).
